Patent US9566363B2, “Microbicidal composite material” (priority 2013, dated 2017)
Like-named read-outs stand apart in the source and are kept apart here.

Experiments:
Format in all cases: cell-based
S. aureus [1] = assay: Bio film disruption assay (crystal violet, OD 570 nm); settings: Staphylococcus aureus, overnight grown culture, 24 hours, 15 mm disc, Ciprofloxacin 1 ug/ml, read-out: % Inhibition, Percentage Effect in Bio film disruption assay
Description: (§1) 15 millimeters (mm) Discs of the microbicidal composite material were cut and placed into 24 well plates containing approximately 10^8 CFU/ml in Tryptic Soy Broth (TSB) of P. aeruginosa and S. aureus respectively and incubated at 37±1° C. for the Bio film Prevention assay. Similarly, 15 millimeter (mm) Discs of the microbicidal composite material were cut and placed into 24 well plates containing overnight grown culture of P. aeruginosa and S. aureus respectively in TSB and further incubated for 24 hours at 37±1° C. for the disruption assay.
(§2) Further, plain filter paper discs were placed in culture control (C) wells with approximately 10^8 CFU/ml of the above bacteria in Tryptic Soy Broth (TSB) for both the Prevention and Disruption assay. After incubation, the contents were removed and washed four times with Phosphate Buffer saline (pH 7.2). A 500 μl of 0.1% crystal violet stain was added to each well and incubated for 20 minutes at room temperature, washed, and dried. Subsequently, 500 μl of ethanol supplemented with 2% acetic acid was added to each well for 30 min. The Optical Density (OD) of stained adherent Bio film was obtained by using a Tecan plate reader at 570 nm wavelength. Percentage inhibitions in the respective assays were calculated in comparison to the control.

P. aeruginosa [2] = assay: as above; settings: Pseudomonas aeruginosa, overnight grown culture, 24 hours, 15 mm disc, Ciprofloxacin 1 ug/ml, read-out: % Inhibition, Percentage Effect in Bio film disruption assay
Description: as §1, §2

S. aureus [3] = assay: Residual microbes on ZOI disc after transfer to Nutrient broth
Description: (§3) After 24 hours, the discs were transferred to Nutrient broth which was then incubated at 37±1° C. for another 24 hours. The broth contents were placed on Nutrient agar plates to measure the residual percentage of microbes present on the disc as a result of remaining on a lawn of bacteria overnight. Percentage survival was calculated as [number of CFU/ml in test substance/number of CFU/ml in control substance]. The killing percentage was calculated as 100-residual percentage. The results are tabulates as under Table-6.

E. coli = assay: as above
Description: as §3

C. albicans = assay: as above
Description: as §3

P. aeruginosa [4] = assay: as above
Description: as §3

[5] = test system: P. aeruginosa (ATCC 9027); assay: Zone of inhibition study (disc on agar plate); settings: radius around 12 mm disc, 24 hours at 37±1° C., triplicates
Description: (§4) The microbicidal composite material was tested in triplicates against E. coli (ATCC25922), S. aureus (ATCC 25923), P. aeruginosa (ATCC 9027) and C. albicans (ATCC 90028). The test material was cut as a 12 mm diameter disc and placed on 90 mm agar plates spread with 100 μl of approximately 10^8 CFU/ml of each bacterial strain and incubated at 37±1° C. for 24 hours. For a negative control, a filter paper disc containing no antibiotic was used. The zone of inhibition (Radius in mm) around the discs was measured using a transparent ruler. The results of this test are tabulated as under Table-5.

E. coli (ATCC25922) = assay: Zone of inhibition study (disc on agar plate); settings: radius around 12 mm disc, 24 hours at 37±1° C., triplicates, Ciprofloxacin 1 μg/Disc
Description: as §4

S. aureus (ATCC 25923) [6] = assay: Zone of inhibition study (disc on agar plate); settings: radius around 12 mm disc, 24 hours at 37±1° C., triplicates
Description: as §4

[7] = test system: P. aeruginosa (ATCC 9027); assay: Rate of microbicidal effect upon contact (CFU enumeration over time); settings: Pseudomonas aeruginosa, 15 mm disc in approximately 10^8 CFU/ml, ciprofloxacin 1 μg/disc, read-out: killing percentage (inhibition of growth as percentage)
Description: (§5) Briefly, 15 millimeter (mm) discs of the microbicidal composite material were cut and placed into 24 well plates containing approximately 10^8 CFU/ml in Nutrient broth of S. aureus (ATCC 25923) & P. aeruginosa (ATCC 9027) respectively and incubated at 37±1° C. At intervals of 1, 5, 15, 30 and 60 minutes, broth samples were drawn and plated on nutrient agar plates and incubated for 24 hours at 37±1° C. for CFU enumeration. Two reference standards (ref-1, and ref-2) [Ref-1: Reference standard-I, includes a test material which is a cotton gauze material bonded with non siloxane based QAS and Ref-2: Reference standard-II includes a test material with active ingredient as silver Test Item refers to the ‘Microbicidal Composite Material’] and a disc containing 1 μg/disc ciprofloxacin. The results are tabulated in table 8 and table 9 as percentage recovery over time. Percentage survival was calculated as number of CFU/ml in test substance/number of CFU/ml in control substance. The killing percentage was calculated as 100-residual percentage.
(§6) FIG. 4 and FIG. 5 show the inhibition of growth as percentage in the Y-axis compared to the untreated control group.

S. aureus (ATCC 25923) [8] = assay: as above; settings: Staphylococcus aureus, 15 mm disc in approximately 10^8 CFU/ml, ciprofloxacin 1 μg/disc, read-out: killing percentage (inhibition of growth as percentage)
Description: as §5, §6

S. aureus [9] = assay: Bio film prevention assay (crystal violet, OD 570 nm); settings: Staphylococcus aureus, 15 mm disc, Ciprofloxacin 1 ug/ml, versus control, read-out: % Inhibition, Percentage Effect in Bio film prevention assay
Description: as §1, §2

P. aeruginosa [10] = assay: as above; settings: Pseudomonas aeruginosa, 15 mm disc, Ciprofloxacin 1 ug/ml, versus control, read-out: % Inhibition, Percentage Effect in Bio film prevention assay
Description: as §1, §2

C. albicans (ATCC 90028) = assay: Zone of inhibition study (disc on agar plate); settings: radius around 12 mm disc, 24 hours at 37±1° C., triplicates, Flucanazole 25 μg/Disc
Description: as §4

[11] = disc from ZOI assay in Nutrient broth for another 24 hours, CFU/ml versus control

O=C(O)c1cn(C2CC2)c2cc(N3CCNCC3)c(F)cc2c1=O [Ciprofloxacin]
inhibition at 1 µg/mL (S. aureus [1]): 88.2%
inhibition at 1 µg/mL (P. aeruginosa [2]): 91.4%
Killing % (S. aureus [3]; 100-residual percentage): 99.9921%
Residual % (S. aureus [3]; [11]): 0.008%
Killing % (E. coli; 100-residual percentage): 99.9997%
Residual % (E. coli; [11]): 0.000%
Killing % (C. albicans; 100-residual percentage): 99.9902%
Residual % (C. albicans; [11]): 0.010%
Killing % (P. aeruginosa [4]; 100-residual percentage): 99.9994%
Residual % (P. aeruginosa [4]; [11]): 0.001%
ZOI (in mm) Mean [5]: 9.50 mm
ZOI (in mm) Mean (E. coli (ATCC25922)): 11.00 mm
ZOI (in mm) Mean (S. aureus (ATCC 25923) [6]): 11.55 mm
inhibition at 1 µg/disc ([7]; ATCC9027, 1 min, 1 minute): 0%
inhibition at 1 µg/disc ([7]; ATCC9027, 5 min, 5 minutes): 32.4%
inhibition at 1 µg/disc ([7]; ATCC9027, 0.25 h, 15 minutes): 87.4%
inhibition at 1 µg/disc ([7]; ATCC9027, 0.5 h, 30 minutes): 98%
inhibition at 1 µg/disc ([7]; ATCC9027, 1 h, 60 minutes): 99.9%
inhibition at 1 µg/disc (S. aureus (ATCC 25923) [8]; ATCC25923, 1 min, 1 minute): 0%
inhibition at 1 µg/disc (S. aureus (ATCC 25923) [8]; ATCC25923, 5 min, 5 minutes): 32%
inhibition at 1 µg/disc (S. aureus (ATCC 25923) [8]; ATCC25923, 0.25 h, 15 minutes): 86.2%
inhibition at 1 µg/disc (S. aureus (ATCC 25923) [8]; ATCC25923, 0.5 h, 30 minutes): 79.1%
inhibition at 1 µg/disc (S. aureus (ATCC 25923) [8]; ATCC25923, 1 h, 60 minutes): 98.8%
inhibition at 1 µg/mL (S. aureus [9]): 93.1%
inhibition at 1 µg/mL (P. aeruginosa [10]): 89.8%

OC(Cn1cncn1)(Cn1cncn1)c1ccc(F)cc1F [Flucanazole]
ZOI (in mm) Mean (C. albicans (ATCC 90028)): 3.60 mm
